We go through one compound from BindingDB's records for PubMed 7509389 (Fujisawa Pharmaceutical, 1994).

pKi: −log10 of the molar value.

In this test the target is T1, Gastrin/cholecystokinin type B receptor (Rattus norvegicus, UniProt P30553).
T1 sequence (P30553 whole entry): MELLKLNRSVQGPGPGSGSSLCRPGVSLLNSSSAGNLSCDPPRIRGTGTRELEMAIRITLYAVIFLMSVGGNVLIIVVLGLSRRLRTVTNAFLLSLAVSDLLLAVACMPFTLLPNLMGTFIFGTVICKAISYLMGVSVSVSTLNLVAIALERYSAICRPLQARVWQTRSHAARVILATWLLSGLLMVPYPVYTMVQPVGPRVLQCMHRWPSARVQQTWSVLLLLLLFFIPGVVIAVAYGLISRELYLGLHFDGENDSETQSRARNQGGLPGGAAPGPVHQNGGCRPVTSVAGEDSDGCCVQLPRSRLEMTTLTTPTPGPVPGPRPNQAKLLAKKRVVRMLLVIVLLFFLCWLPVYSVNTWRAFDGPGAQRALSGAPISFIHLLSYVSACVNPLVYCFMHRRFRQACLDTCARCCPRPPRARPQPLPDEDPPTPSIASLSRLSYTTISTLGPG

As a reminder, the pKi is the Ki on a negative log10 scale, so that one unit is a factor of ten. Lower therefore signals a high Ki. Take `CCCCCN(CCCOC)C(=O)C(CCC(=O)O)NC(=O)c1ccc(Cl)c(Cl)c1` (stereo unspecified) [4-(3,4-dichlorobenzamido)-5-((3-methoxypropyl)(pentyl)amino)-5-oxopentanoic acid]: the pKi is 6.48.
